Assay results taken from patent US11464802B2, “3-substituted piperidine compounds for Cbl-b inhibition, and use thereof” (Nurix Therapeutics, Inc., priority 2019, dated 2022).
Read-outs that look alike come from different tables or passages of the source.

Experiments:
[1] = tested on: primary human total T-cells; test: Primary human total T-cell activation: CD25 surface staining, Biological Example 2; assay type: cell-based; settings: 48 hours, fold change over baseline; for fold induction at 0.3 µM: inhibitor 0.3 μM; for fold induction at 1 µM: inhibitor 1 μM; for fold induction at 3 µM: inhibitor 3 μM
Cbl-b = Cbl-b (Homo sapiens (Human), UniProt Q13191); test: Cbl-b displacement assay (Cbl-b inhibition assay), TR-FRET probe displacement, Biological Example 1; assay type: binding
Cbl-b, sequence (Q13191 36-427): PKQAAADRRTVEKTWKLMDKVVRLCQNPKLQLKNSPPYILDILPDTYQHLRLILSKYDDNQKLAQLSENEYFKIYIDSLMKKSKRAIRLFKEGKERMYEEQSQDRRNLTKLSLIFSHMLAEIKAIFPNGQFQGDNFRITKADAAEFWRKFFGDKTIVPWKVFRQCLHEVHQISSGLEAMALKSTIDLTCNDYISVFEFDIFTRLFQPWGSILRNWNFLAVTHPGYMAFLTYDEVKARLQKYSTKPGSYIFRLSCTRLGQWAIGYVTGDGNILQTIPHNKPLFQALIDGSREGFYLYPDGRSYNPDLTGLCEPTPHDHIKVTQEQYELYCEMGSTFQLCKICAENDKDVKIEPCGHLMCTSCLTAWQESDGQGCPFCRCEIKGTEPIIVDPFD
Experimental: Candidate compounds were evaluated for their ability to bind and inhibit Cbl-b, an E3 ubiquitin-protein ligase, as evidenced by their ability to displace a fluorophore-labeled probe (Example 46) bound to Cbl-b.
The ability of candidate compounds to displace a known inhibitor and thereby inhibit Cbl-b activity was measured by monitoring the interaction of Cbl-b with a fluorophore-labeled probe in the presence of the candidate compound. A truncated variant of Cbl-b (UniProt number Q13191; SEQ ID NO:1) containing an Avitag at its N-terminus was co-expressed with BirA biotin ligase and purified using a standard protocol (see Dou et al., Nature Structural and Molecular Biology 8: 982-987, 2013; Avidity LLC).
Fluorescently-labeled inhibitor probe was synthesized and tagged with BODIPY FL (Example 46). Cbl-b displacement assays were performed in a 384-well plate at room temperature in a 10 μL reaction volume by pre-incubating 0.5 nM Cbl-b or 0.125 nM Cbl-b (final concentration, indicated as “High” and “Low”, respectively) in an assay buffer containing 20 mM HEPES pH 7.5, 150 mM NaCl, 0.01% Triton X-100, 0.01% BSA, and 0.5 mM TCEP in the presence of a candidate compound in 1% DMSO (final concentration) for 1 hour. After incubation in the presence of the candidate compound, the plate was incubated for an additional 1 hour in the presence of an approximate EC40 binding saturation consisting of 150 nM fluorescently-labeled inhibitor probe and 2 nM Streptavidin-Terbium (Cisbio) (final concentrations). Following the 1 hour incubation, the plates were read for TR-FRET signal at 520/620 nM using an Envision plate reader (Perkin Elmer).

[2] = tested on: primary human total T-cells; test: Primary human total T-cell activation: IL-2 secretion, Biological Example 2; assay type: cell-based; settings: 48 hours, fold change over baseline; for fold induction at 0.3 µM: inhibitor 0.3 μM; for fold induction at 1 µM: inhibitor 1 μM; for fold induction at 3 µM: inhibitor 3 μM
[3] = anti-CD3/anti-CD28 co-stimulation
[4] = anti-CD3/anti-CD28 co-stimulation, read-out: CD25 staining CD3/CD28 1 μM
[5] = anti-CD3 alone, read-out: CD25 staining CD3 1 μM
[6] = 0.5 nM Cbl-b final concentration (High), read-out: Cbl-b activity IC50 (High)
[7] = Cbl-b concentration (High or Low) not given, read-out: IC50 values in the Cbl-b inhibition assay of Biological Example 1
[8] = anti-CD3/anti-CD28 co-stimulation, read-out: IL-2 secretion CD3/CD28 1 μM
[9] = anti-CD3 alone, read-out: IL-2 secretion CD3 1 μM
[10] = 0.125 nM Cbl-b final concentration (Low), read-out: Cbl-b activity IC50 (Low)

Compound | fold induction at 0.3 µM [1, 3] | fold induction at 1 µM [1, 4] | fold induction at 1 µM [1, 5] | fold induction at 3 µM ([1]; anti-CD3 alone) | IC50 (Cbl-b; [6]) | IC50 (Cbl-b; [7]) | fold induction at 0.3 µM [2, 3] | fold induction at 1 µM [2, 8] | fold induction at 1 µM [2, 9] | fold induction at 3 µM ([2]; anti-CD3 alone) | IC50 (Cbl-b; [10])
C[C@@H]1CN(Cc2cc3c(c(C(F)(F)F)c2)CN(c2cc(C4(Cc5nncn5C)COC4)cc(NC4COC4)n2)C3=O)CCC1(F)F [Compound 29, (R)-6-((4,4-difluoro-3-methylpiperidin-1-yl)methyl)-2-(4-(3-((4-methyl-4H-1,2,4-triazol-3-yl)methyl)oxetan-3-yl)-6-(oxetan-3-ylamino)pyridin-2-yl)-4-(trifluoromethyl)isoindolin-1-one] | < 1.24 | < 1.24 | < 1.04 | < 1.04 | 5.1 to 100 nM | 5.1 to 100 nM | 11 to 15 | 11 to 15 | 0.34 to 0.66 | 0.34 to 0.66 | –
C[C@@H]1CN(Cc2cc3c(c(C(F)(F)F)c2)CN(c2cc(C4(Cc5nncn5C)COC4)cc(C4CC4)n2)C3=O)CCC1(F)F [Compound 30, (R)-2-(6-cyclopropyl-4-(3-((4-methyl-4H-1,2,4-triazol-3-yl)methyl)oxetan-3-yl)pyridin-2-yl)-6-((4,4-difluoro-3-methylpiperidin-1-yl)methyl)-4-(trifluoromethyl)isoindolin-1-one] | < 1.24 | < 1.24 | < 1.04 | < 1.04 | 5.1 to 100 nM | 5.1 to 100 nM | > 15 | > 15 | 0.34 to 0.66 | 0.34 to 0.66 | –
C[C@@H]1CN(Cc2cc3c(c(C(F)(F)F)c2)CN(c2cccc(C4(Cc5nncn5C(F)F)COC4)c2)C3=O)CCC1(F)F [Compound 31, (R)-6-((4,4-difluoro-3-methylpiperidin-1-yl)methyl)-2-(3-(3-((4-(difluoromethyl)-4H-1,2,4-triazol-3-yl)methyl)oxetan-3-yl)phenyl)-4-(trifluoromethyl)isoindolin-1-one] | > 1.39 | > 1.39 | < 1.04 | < 1.04 | – | 1 to 5 nM | > 15 | > 15 | > 0.66 | > 0.66 | 1 to 5 nM
C[C@H]1CN(Cc2cc(C(=O)Nc3cccc(C4(Cc5nncn5C)COC4)c3)nc(C3CC3)c2)CCC1(F)F [Compound 33, 6-cyclopropyl-4-{[(3S)-4,4-difluoro-3-methylpiperidin-1-yl]methyl}-N-(3-{3-[(4-methyl-1,2,4-triazol-3-yl)methyl]oxetan-3-yl}phenyl)pyridine-2-carboxamide] | < 1.24 | < 1.24 | 1.05 to 1.14 | 1.05 to 1.14 | 1 to 5 nM | – | 11 to 15 | 11 to 15 | < 0.33 | 0.34 to 0.66 | –
C[C@H]1CCCN(Cc2cc3c(c(C4CC4)n2)CN(c2cccc(C4(Cc5nncn5C)COC4)c2)C3=O)C1 [Compound 35, (S)-4-Cyclopropyl-2-(3-(3-((4-methyl-4H-1,2,4-triazol-3-yl)methyl)oxetan-3-yl)phenyl)-6-((3-methylpiperidin-1-yl)methyl)-2,3-dihydro-1H-pyrrolo[3,4-c]pyridin-1-one] | < 1.24 | 1.25 to 1.39 | 1.05 to 1.14 | > 1.14 | – | – | 11 to 15 | > 15 | 0.34 to 0.66 | > 0.66 | 1 to 5 nM
C[C@H]1CCCN(Cc2cc3c(c(C(F)(F)F)c2)CN(c2cccc(C4(Cc5nncn5C(F)F)COC4)c2)C3=O)C1 [Compound 36, 2-[3-(3-{[4-(difluoromethyl)-1,2,4-triazol-3-yl]methyl}oxetan-3-yl)phenyl]-6-{[(3S)-3-methylpiperidin-1-yl]methyl}-4-(trifluoromethyl)-3H-isoindol-1-one] | > 1.39 | > 1.39 | > 1.14 | > 1.14 | – | < 1 nM | > 15 | > 15 | > 0.66 | > 0.66 | < 1 nM
C[C@H]1CCCN(Cc2cc3c(c(C4CC4)n2)CN(c2cccc(C4(Cc5nncn5C(F)F)COC4)c2)C3=O)C1 [Compound 37, 4-cyclopropyl-2-[3-(3-{[4-(difluoromethyl)-1,2,4-triazol-3-yl]methyl}oxetan-3-yl)phenyl]-6-{[(3S)-3-methylpiperidin-1-yl]methyl}-3H-pyrrolo[3,4-c]pyridin-1-one] | > 1.39 | > 1.39 | > 1.14 | > 1.14 | – | 1 to 5 nM | > 15 | > 15 | > 0.66 | > 0.66 | 1 to 5 nM
C[C@@H]1CN(Cc2cc3c(c(C4CC4)n2)CN(c2cccc(C4(Cc5nncn5C(F)F)COC4)c2)C3=O)CCC1(F)F [Compound 38, 4-cyclopropyl-6-{[(3R)-4,4-difluoro-3-methylpiperidin-1-yl]methyl}-2-[3-(3-{[4-(difluoromethyl)-1,2,4-triazol-3-yl]methyl}oxetan-3-yl)phenyl]-3H-pyrrolo[3,4-c]pyridin-1-one] | > 1.39 | > 1.39 | > 1.14 | > 1.14 | – | 1 to 5 nM | > 15 | > 15 | > 0.66 | > 0.66 | 1 to 5 nM
CCOc1cc(C2(Cc3nncn3C)COC2)cc(N2Cc3c(cc(CN4CCC[C@H](C)C4)nc3C3CC3)C2=O)n1 [Compound 40, 4-cyclopropyl-2-(6-ethoxy-4-{3-[(4-methyl-1,2,4-triazol-3-yl)methyl]oxetan-3-yl}pyridin-2-yl)-6-{[(3S)-3-methylpiperidin-1-yl]methyl}-3H-pyrrolo[3,4-c]pyridin-1-one] | > 1.39 | > 1.39 | > 1.14 | > 1.14 | – | < 1 nM | > 15 | > 15 | > 0.66 | > 0.66 | < 1 nM
CCOc1cc(C2(Cc3nncn3C)COC2)cc(N2Cc3c(cc(CN4CCC(F)(F)[C@H](C)C4)nc3C3CC3)C2=O)n1 [Compound 41, 4-cyclopropyl-6-{[(3R)-4,4-difluoro-3-methylpiperidin-1-yl]methyl}-2-(6-ethoxy-4-{3-[(4-methyl-1,2,4-triazol-3-yl)methyl]oxetan-3-yl}pyridin-2-yl)-3H-pyrrolo[3,4-c]pyridin-1-one] | > 1.39 | > 1.39 | > 1.14 | > 1.14 | – | – | > 15 | > 15 | > 0.66 | > 0.66 | 1 to 5 nM
CCNc1cc(C2(Cc3nncn3C)COC2)cc(N2Cc3c(cc(CN4CCC(F)(F)[C@H](C)C4)nc3C3CC3)C2=O)n1 [Compound 42, (R)-4-cyclopropyl-6-((4,4-difluoro-3-methylpiperidin-1-yl)methyl)-2-(6-(ethylamino)-4-(3-((4-methyl-4H-1,2,4-triazol-3-yl)methyl)oxetan-3-yl)pyridin-2-yl)-2,3-dihydro-1H-pyrrolo[3,4-c]pyridin-1-one] | > 1.39 | > 1.39 | > 1.14 | > 1.14 | – | – | > 15 | > 15 | > 0.66 | > 0.66 | 1 to 5 nM
CCNc1cc(C2(Cc3nncn3C)COC2)cc(N2Cc3c(cc(CN4CCC[C@H](C)C4)nc3C3CC3)C2=O)n1 [Compound 43, 4-cyclopropyl-2-[6-(ethylamino)-4-{3-[(4-methyl-1,2,4-triazol-3-yl)methyl]oxetan-3-yl}pyridin-2-yl]-6-{[(3S)-3-methylpiperidin-1-yl]methyl}-3H-pyrrolo[3,4-c]pyridin-1-one] | > 1.39 | > 1.39 | > 1.14 | > 1.14 | – | – | > 15 | > 15 | > 0.66 | > 0.66 | 1 to 5 nM
